Laboratory results from PubChem BioAssay (NCI).
“And” between values parts separate entries of the source, which are not always exact repeats. Equal values may be shown once.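 Tested at 5 concentrations; 48 h exposure; 96-well plates; endpoints linearly interpolated, else capped at highest concentration. At the GI50, growth is halved. Definition used: TGI = concentration required for complete inhibition of growth.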

Columns and labels:
Assay in all cases: NCI tumour cell line growth inhibition, 48 h
ACHN renal = system: ACHN renal
UACC-62 melanoma = system: UACC-62 melanoma
SR leukemia = system: SR leukemia
SNB-19 CNS = system: SNB-19 CNS
U251 CNS = system: U251 CNS
NCI-H522 lung = system: NCI-H522 lung
HCC-2998 colon = system: HCC-2998 colon
UO-31 renal = system: UO-31 renal
HS 578T breast = system: HS 578T breast
SW-620 colon = system: SW-620 colon
NCI-H23 lung = system: NCI-H23 lung
LOX IMVI melanoma = system: LOX IMVI melanoma
SNB-75 CNS = system: SNB-75 CNS

Compound | TGI (ACHN renal) | TGI (UACC-62 melanoma) | TGI (SR leukemia) | TGI (SNB-19 CNS) | TGI (U251 CNS) | TGI (NCI-H522 lung) | TGI (HCC-2998 colon) | TGI (UO-31 renal) | TGI (HS 578T breast) | TGI (SW-620 colon) | TGI (NCI-H23 lung) | TGI (LOX IMVI melanoma) | TGI (SNB-75 CNS) | GI50 (NCI-H522 lung) | GI50 (UO-31 renal)
CC(=O)Nc1ccc2[nH]c(-c3cccc(F)c3)cc(=O)c2c1 | > 100 µM | > 31 µM | > 100 µM | > 100 µM | 16.3 µM | 20.2 µM | 23 µM | > 82.2 µM | > 28.2 µM | > 100 µM | > 56.8 µM |  |  |  | 
Nc1nc(Cl)cc(Nc2cc(Cl)cc(Cl)c2)n1 | 56.8 µM | 33.5 µM |  | 47.5 µM | 38.4 µM | 24.3 µM | 32.8 µM | 36.5 µM | 41.1 µM | 41.1 µM | 48.6 µM | 32.3 µM | 39.5 µM |  | 
Cc1cc2c(c(C=NCc3ccccc3)c1)OC1(C=C2)Oc2ccccc2C(=O)N1C (configuration not stated) | 69.7 µM | 48.2 µM | 49.9 µM | > 100 µM | 80.3 µM |  | 57.4 µM | 40.9 µM | 63.6 µM | > 100 µM | 69.6 µM | 34.5 µM | 75.8 µM |  | 
CC(C)C1OC(=O)/C=C/C=C/C=C/C=C/C=C/CC(O)CC(O)CC(O)CC(O)CC(O)CC(O)CC(O)CC(O)/C=C/C1C (configuration not stated) | > 100 µM |  | > 100 µM | > 100 µM | > 100 µM |  | > 100 µM | > 100 µM |  | > 100 µM | > 100 µM | > 100 µM | > 100 µM |  | 
COC(=O)c1csc(-c2nc(CCNC(=O)OC(C)(C)C)sc2Br)n1 | > 100 µM | > 100 µM | > 100 µM | > 100 µM | > 100 µM |  | > 100 µM | > 100 µM | > 100 µM | > 100 µM | > 100 µM |  | > 100 µM |  | 
COc1ccc(C2S/C(=C\c3ccc(O)cc3)C(=O)N2NC(=O)Cc2ccccc2)cc1 (configuration not stated) | > 100 µM | > 100 µM | > 100 µM |  | > 100 µM | > 100 µM |  | > 100 µM |  | > 100 µM | > 100 µM | > 100 µM | > 100 µM |  | 
S=C1N=C(Cl)C2(NN1)c1ccccc1-c1ccccc12 |  | > 10 µM | > 10 µM |  | > 10 µM |  | > 10 µM | > 10 µM | > 10 µM | > 10 µM | > 10 µM | > 10 µM | > 10 µM |  | 
CC(C)=CCSC1CC2C(CC1(C)O)C2(C)C (configuration not stated) | 31 µM and 31.3 µM | 29.2 µM and 31.7 µM |  | 34.2 µM and 31.8 µM | 28.5 µM and 27.1 µM | 26.9 µM and 18.8 µM | 3.27 µM and 18.6 µM | 28.2 µM and 20.8 µM |  | 35.1 µM and 33.3 µM | 29.8 µM and 25 µM | 29.7 µM | 30.1 µM and 23.7 µM | 13.3 µM and 4.38 µM | 14.4 µM and 6.12 µM
N/C(=N/n1c(=S)[nH]c2ccccc2c1=O)Nn1c(=S)[nH]c2ccccc2c1=O | > 100 µM | > 100 µM | 52 µM | > 100 µM | 72.3 µM | 30 µM | > 100 µM | 27.3 µM |  | 38.6 µM | 62.4 µM | 46 µM | > 100 µM |  | 
COC(=O)/N=[N+](\[O-])C(c1ccc(OC)cc1)C1CCCCC1 (configuration not stated) | 16.3 µM | 25 µM |  | > 54.2 µM | 20.1 µM | 5.1 µM | 16.1 µM | 21.5 µM | 40.7 µM | 24.3 µM | 22.6 µM | > 100 µM | 20.8 µM |  | 
CCCCOC(=O)C(O)Cc1ccoc1 (configuration not stated) | > 100 µM | > 100 µM |  | > 100 µM | > 100 µM | > 100 µM | > 100 µM | > 100 µM | > 100 µM | > 100 µM | > 100 µM | > 100 µM | > 100 µM |  | 
C[C@H](O)C1CC(Cn2nnc3c(N)ncnc32)C1(C)C (some centres not stated) | > 100 µM | > 100 µM |  | > 100 µM | > 100 µM |  | > 100 µM | > 100 µM | > 100 µM | > 100 µM |  | > 100 µM | > 100 µM |  | 
COC(=O)c1c(C)cccc1CC1Cc2c(C)cccc2C1=O (configuration not stated) | > 100 µM | 89.9 µM |  | > 100 µM | > 100 µM | 57.8 µM | > 100 µM | 71 µM | > 100 µM | > 100 µM | 99.5 µM | 33.6 µM | > 100 µM |  | 
COc1ccc(CC2NC(=O)/C=C/CC(C(C)C3OC3c3ccccc3)OC(=O)C(CC(C)C)OC(=O)C(C)CNC2=O)cc1Cl (configuration not stated) | > 0.1 µM |  |  | > 0.1 µM | > 0.1 µM | > 0.1 µM | 0.00259 µM |  |  | > 0.1 µM | > 0.1 µM | > 0.1 µM | > 0.1 µM |  | 
C=CC[C@H]1[C@H](O[Si](C)(C)C(C)(C)C)C=CC(=O)[C@@H]1CC(=O)N(Cc1ccccc1)Cc1ccccc1 | > 100 µM | > 100 µM | > 100 µM | > 100 µM | > 100 µM | > 100 µM | 73.6 µM | 41.2 µM | > 100 µM | > 100 µM | 30.5 µM | 26.9 µM |  |  | 
c1cc2c(c(-c3c4ccccc4nc4ccccc34)c1)CC1(CC2)OCCO1 | > 100 µM |  |  | > 100 µM | > 100 µM | > 100 µM | > 100 µM | > 100 µM |  | > 100 µM | > 100 µM | > 100 µM | > 100 µM |  | 
CC(=O)Nc1ccc2c3c(cc(O)c2c1)N(C(=O)CCCCC(=O)Nc1ccc2c4c(cc(O)c2c1)N(C(=O)OC(C)(C)C)CC4CCl)CC3CCl (configuration not stated) | 16.1 µM | 3.16 µM |  | > 29.5 µM | 10 µM | 4.1 µM | 3.79 µM | > 63.9 µM | > 26.6 µM | > 100 µM | 7.09 µM | > 34.6 µM | 4.59 µM |  | 
CCOC(=O)C(NC(=O)Nc1ccc(Cl)c(Cl)c1)C(F)(F)F (configuration not stated) | > 100 µM |  | > 100 µM | > 100 µM | > 100 µM |  | > 100 µM | > 100 µM | > 100 µM | > 100 µM | > 100 µM | > 100 µM | > 100 µM |  | 
CC(=O)OCC1=C(C)C(OC(=O)C(OC(C)=O)[C@@H](NC(=O)c2ccccc2)c2ccccc2)CCC1(C)C (some centres not stated) | > 100 µM | > 100 µM | > 100 µM | > 100 µM | > 100 µM |  | > 100 µM | > 100 µM |  | > 100 µM | > 100 µM | > 100 µM | > 100 µM |  | 
